In US6737383B1, “Herbicidal oxadiazolidines” (priority 1999, dated 2004):

Key:
bedstraw = assay: Test B pre/postemergence bedstraw; format: in vivo, Galium aparine; conditions: Preemergence
How it was run: (§1)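 Herbicidal effect was estimated by eye on a ten-point control scale after plants spent twelve to sixteen days in a greenhouse following soil or foliar treatment. Foliar sprays targeted plants at one to four leaves; all doses were formulated in a non-phytotoxic solvent with surfactant.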

blackgrass = assay: Test B pre/postemergence blackgrass; format: in vivo, Alopecurus myosuroides
How it was run: as §1

surinam grass = assay: Test B pre/postemergence surinam grass; format: in vivo, Brachiaria decumbens
How it was run: as §1

cocklebur = assay: Test B pre/postemergence cocklebur; format: in vivo, Xanthium strumarium
How it was run: as §1

corn = assay: Test B pre/postemergence corn; format: in vivo, Zea mays
How it was run: as §1

crabgrass = assay: Test B pre/postemergence crabgrass; format: in vivo, Digitaria sanguinalis
How it was run: as §1

giant foxtail = assay: Test B pre/postemergence giant foxtail; format: in vivo, Setaria faberii
How it was run: as §1

morningglory = assay: Test B pre/postemergence morningglory; format: in vivo, Ipomoea hederacea
How it was run: as §1

pigweed = assay: Test B pre/postemergence pigweed; format: in vivo, Amaranthus retroflexus; conditions: for Plant response rating, Redroot pigweed: Postemergence
How it was run: as §1

rape = assay: Test B pre/postemergence rape; format: in vivo, Brassica napus
How it was run: as §1

soybean = assay: Test B pre/postemergence soybean; format: in vivo, Glycine max; conditions: for Plant response rating, Soybean: Postemergence
How it was run: as §1

sugar beet = assay: Test B pre/postemergence sugar beet; format: in vivo, Beta vulgaris; conditions: for Plant response rating, Sugarbeets: Postemergence
How it was run: as §1

velvetleaf = assay: Test B pre/postemergence velvetleaf; format: in vivo, Abutilon theophrasti; conditions: for Plant response rating, Velvetleaf: Postemergence
How it was run: as §1

wheat = assay: Test B pre/postemergence wheat; format: in vivo, Triticum aestivum; conditions: for Plant response rating, Wheat: Postemergence
How it was run: as §1

wild oat = assay: Test B pre/postemergence wild oat; format: in vivo, Avena fatua; conditions: for Plant response rating, Wild oats: Postemergence
How it was run: as §1

purple nutsedge = assay: Test B pre/postemergence purple nutsedge; format: in vivo, Cyperus rotundus
How it was run: as §1

[1] = Rate 500 g/ha, scale of 0 to 10 where 0 is no effect and 10 is complete control
[2] = Postemergence, Rate 62 g/ha, scale of 0 to 10, 0 is no effect, 10 is complete control
[3] = Postemergence, Rate 125 g/ha, scale 0 to 10, 0 is no effect, 10 is complete control
[4] = Postemergence, Rate 500 g/ha, scale of 0 to 10 where 0 is no effect and 10 is complete control
[5] = Preemergence, Rate 62 g/ha, scale 0 to 10 (0 no effect, 10 complete control)
[6] = Preemergence, Rate 125 g/ha, scale 0 to 10, 0 is no effect, 10 is complete control
[7] = Preemergence, Rate 500 g/ha, scale of 0 to 10 where 0 is no effect and 10 is complete control
[8] = Rate 250 g/ha, Postemergence, scale of 0 to 10 where 0 is no effect and 10 is complete control
[9] = Rate 250 g/ha, scale of 0 to 10 where 0 is no effect and 10 is complete control

CCN(CC)C(=O)Cn1c(=O)on(C(=O)N(c2ccccc2)C(C)C)c1=O [Compound 571]
4: Morningglory plant response rating (morningglory; [2]) | Morningglory plant response rating (morningglory; [7]) | Plant response rating, Soybean (soybean; [1])
2: Blackgrass plant response rating (blackgrass; [6]) | Crabgrass plant response rating (crabgrass; [5]) | Crabgrass plant response rating (crabgrass; [6]) | Plant response rating, Giant foxtail (giant foxtail; [8]) | Morningglory plant response rating (0 to 10 scale) (morningglory; Preemergence, Rate 250 g/ha) | Rape plant response rating (rape; [7]) | Plant response rating, Soybean (soybean; [9])
5: Plant response rating, B. signalgrass (surinam grass; [4])
10: Morningglory plant response rating (morningglory; [3]) | Plant response rating, Morningglory (morningglory; [4]) | Plant response rating, Morningglory (morningglory; [8])
7: Wild oats plant response rating (wild oat; [7])
3: Blackgrass plant response rating (0 to 10 scale) (blackgrass; Preemergence, Rate 250 g/ha) | B. signalgrass plant response rating (surinam grass; [6]) | B. signalgrass plant response rating (0 to 10 scale, 0 is no effect, 10 is complete control) (surinam grass; Preemergence, Rate 250 g/ha) | Plant response rating, Crabgrass (crabgrass; [4]) | Crabgrass plant response rating (0 to 10 scale) (crabgrass; Preemergence, Rate 250 g/ha) | Crabgrass plant response rating (crabgrass; [7]) | Plant response rating, Giant foxtail (giant foxtail; [4]) | Giant foxtail plant response rating (giant foxtail; [5]) | Giant foxtail plant response rating (giant foxtail; [6]) | Soybean plant response rating (soybean; [7]) | Wheat plant response rating (wheat; [6]) | Wheat plant response rating (0 to 10 scale) (wheat; Preemergence, Rate 250 g/ha) | Wild oats plant response rating (0 to 10 scale) (wild oat; Preemergence, Rate 250 g/ha)
9: Blackgrass plant response rating (blackgrass; [7]) | B. signalgrass plant response rating (surinam grass; [7]) | Giant foxtail plant response rating (0 to 10 scale) (giant foxtail; Preemergence, Rate 250 g/ha) | Giant foxtail plant response rating (giant foxtail; [7]) | Redroot pigweed plant response rating (0 to 10 scale) (pigweed; Preemergence, Rate 250 g/ha) | Redroot pigweed plant response rating (pigweed; [7]) | Wheat plant response rating (wheat; [7])
0: Bedstraw plant response rating (bedstraw; Rate 62 g/ha, scale 0 to 10 (0 no effect, 10 complete control)) | Bedstraw plant response rating (bedstraw; Rate 125 g/ha, scale 0 to 10, 0 is no effect, 10 is complete control) | Bedstraw plant response rating (0 to 10 scale) (bedstraw; Rate 250 g/ha) | Bedstraw plant response rating (bedstraw; [1]) | Blackgrass plant response rating (blackgrass; [2]) | Blackgrass plant response rating (blackgrass; [3]) | Plant response rating, Blackgrass (blackgrass; [4]) | Blackgrass plant response rating (blackgrass; [5]) | Plant response rating, Blackgrass (blackgrass; [8]) | B. signalgrass plant response rating (surinam grass; [2]) | B. signalgrass plant response rating (surinam grass; [3]) | B. signalgrass plant response rating (surinam grass; [5]) | Plant response rating, B. signalgrass (surinam grass; [8]) | Cocklebur plant response rating (cocklebur; [2]) | Cocklebur plant response rating (cocklebur; [3]) | Plant response rating, Cocklebur (cocklebur; [4]) | Cocklebur plant response rating (cocklebur; [5]) | Cocklebur plant response rating (cocklebur; [6]) | Cocklebur plant response rating (0 to 10 scale) (cocklebur; Preemergence, Rate 250 g/ha) | Cocklebur plant response rating (cocklebur; [7]) | Plant response rating, Cocklebur (cocklebur; [8]) | Corn plant response rating (corn; [2]) | Corn plant response rating (corn; [3]) | Plant response rating, Corn (corn; [4]) | Corn plant response rating (corn; [5]) | Corn plant response rating (corn; [6]) | Corn plant response rating (0 to 10 scale) (corn; Preemergence, Rate 250 g/ha) | Corn plant response rating (corn; [7]) | Plant response rating, Corn (corn; [8]) | Crabgrass plant response rating (crabgrass; [2]) | Crabgrass plant response rating (crabgrass; [3]) | Giant foxtail plant response rating (giant foxtail; [2]) | Giant foxtail plant response rating (giant foxtail; [3]) | Morningglory plant response rating (morningglory; [5]) | Morningglory plant response rating (morningglory; [6]) | Plant response rating, Redroot pigweed (pigweed; [1]) | Redroot pigweed plant response rating (pigweed; [5]) | Redroot pigweed plant response rating (pigweed; [6]) | Plant response rating, Redroot pigweed (pigweed; [9]) | Rape plant response rating (rape; [2]) | Rape plant response rating (rape; [3]) | Plant response rating, Rape (rape; [4]) | Rape plant response rating (rape; [5]) | Rape plant response rating (rape; [6]) | Rape plant response rating (0 to 10 scale) (rape; Preemergence, Rate 250 g/ha) | Plant response rating, Rape (rape; [8]) | Soybean plant response rating (soybean; [5]) | Soybean plant response rating (soybean; [6]) | Soybean plant response rating (0 to 10 scale) (soybean; Preemergence, Rate 250 g/ha) | Plant response rating, Sugarbeets (sugar beet; [1]) | Sugarbeets plant response rating (sugar beet; [5]) | Sugarbeets plant response rating (sugar beet; [6]) | Sugarbeets plant response rating (0 to 10 scale) (sugar beet; Preemergence, Rate 250 g/ha) | Sugarbeets plant response rating (sugar beet; [7]) | Plant response rating, Sugarbeets (sugar beet; [9]) | Plant response rating, Velvetleaf (velvetleaf; [1]) | Velvetleaf plant response rating (velvetleaf; [5]) | Velvetleaf plant response rating (velvetleaf; [6]) | Velvetleaf plant response rating (0 to 10 scale) (velvetleaf; Preemergence, Rate 250 g/ha) | Velvetleaf plant response rating (velvetleaf; [7]) | Plant response rating, Velvetleaf (velvetleaf; [9]) | Plant response rating, Wheat (wheat; [1]) | Wheat plant response rating (wheat; [5]) | Plant response rating, Wheat (wheat; [9]) | Plant response rating, Wild oats (wild oat; [1]) | Wild oats plant response rating (wild oat; [5]) | Wild oats plant response rating (wild oat; [6]) | Plant response rating, Wild oats (wild oat; [9]) | Nutsedge plant response rating (purple nutsedge; [2]) | Nutsedge plant response rating (purple nutsedge; [3]) | Plant response rating, Nutsedge (purple nutsedge; [4]) | Nutsedge plant response rating (purple nutsedge; [5]) | Nutsedge plant response rating (purple nutsedge; [6]) | Nutsedge plant response rating (0 to 10 scale) (purple nutsedge; Preemergence, Rate 250 g/ha) | Nutsedge plant response rating (purple nutsedge; [7]) | Plant response rating, Nutsedge (purple nutsedge; [8])
